Experimental data published in publication PMC12163822, “Synthesis and Pharmacological Characterization of a Novel Cannabinoid Receptor 1 Antagonist” (ACS Omega, 2025).
Entries after “also recorded” stand apart in the source; their conditions may differ. Read-outs that look alike come from different tables or passages of the source.

Assays:
cannabinoid receptors = test: [3H]CP55,940 competition binding in rat brain cortex membrane homogenates; set-up: species or system Sprague-Dawley rat; conditions: for IC50: vs [3H]CP55,940, rat brain cortex membranes
Description: Sprague–Dawley rats (n = 5) were anesthetized and sacrificed by decapitation. Spleens and brains were then quickly removed by dissection at 4 °C, and in the case of the brain tissue, the cortex was dissected for the preparation of the membrane homogenates. For this procedure, spleen and cortex samples were homogenized using a Teflon-glass grinder (15 up-and-down strokes at 800 rpm) in 30 volumes of homogenization buffer (1 mM EGTA, 3 mM MgCl2, 50 mM Tris–HCl; pH 7.4) supplemented with […], at 4 °C. The obtained homogenates were centrifuged for 5 min at 1500 rpm. Pellets were removed, and supernatants were centrifuged again for 15 min at 14,000 rpm. For washing, the obtained pellets were resuspended in a buffer and centrifuged again, and the supernatant was removed. The resulting aliquots were stored at −80 °C until use.
To stop the reaction, an ice-cold wash buffer (50 mM Tris–HCl and 0.5% BSA, pH 7.4) was added. Then, the membranes were retained by vacuum filtration to a Whatman GF/C glass microfiber filter (Sigma-Aldrich, St. Louis, MO, USA) and the free radioligand was discarded. Filters with the bound radioligand were transferred to vials containing 5 mL of Ultima Gold cocktail (Revvity, Boston, MA, USA) and measured with a Packard Tri-Carb 2200CA liquid scintillation counter (Revvity, Boston, MA, USA).
Data from radioligand affinity assays were analyzed by using nonlinear regression. A comparison of fits was performed for every curve and the preferred model (one site vs two sites) was chosen in each case. Curves were fitted to the pooled data from multiple experiments. For the evaluation of data from autoradiographic assays, the Kruskal–Wallis test followed by Dunn’s post hoc tests for multiple comparisons was performed. For statistical significance, the threshold was set at p = 0.05. The number of replicates or animal sample number used in each case is stated in the figure legends. GraphPad Prism 9 (GraphPad Software) was employed for data analysis and presentation.

human CB1 receptor = target: T1, human CB1 receptor (Homo sapiens, UniProt P21554); test: [35S]GTPγS functional binding assay in CHO cells overexpressing human CB1; assay type: biochemical; conditions: CB1 overexpressing CHO membranes, result in words
T1 construct: purchased Sigma-Aldrich; host or cells: CHO cells
T1 sequence (P21554 whole entry): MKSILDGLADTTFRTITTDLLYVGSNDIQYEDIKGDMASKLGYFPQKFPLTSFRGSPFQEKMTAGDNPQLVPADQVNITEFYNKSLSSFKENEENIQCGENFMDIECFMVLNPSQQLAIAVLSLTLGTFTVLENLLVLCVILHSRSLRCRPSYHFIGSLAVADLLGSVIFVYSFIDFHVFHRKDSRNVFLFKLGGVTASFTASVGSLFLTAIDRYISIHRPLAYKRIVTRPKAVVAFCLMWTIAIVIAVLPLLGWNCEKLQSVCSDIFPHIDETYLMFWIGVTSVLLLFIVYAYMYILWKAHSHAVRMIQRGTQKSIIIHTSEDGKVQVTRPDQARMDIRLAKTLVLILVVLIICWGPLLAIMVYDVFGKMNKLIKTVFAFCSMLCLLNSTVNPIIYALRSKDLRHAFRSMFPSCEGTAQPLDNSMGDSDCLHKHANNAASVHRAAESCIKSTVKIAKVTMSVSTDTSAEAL
Description: (§1) The compound with the best affinity was also tested using functional [^35S]-GTPγS binding assays to characterize its activity as an agonist or antagonist/inverse agonist. A protein concentration of 0.1 mg/mL of rat cortex homogenates and a protein concentration of 0.02 mg/mL of commercial CB1 overexpressing CHO cells were used for these assays, suspended in a reaction buffer (Tris–HCl 50 mM, EGTA 1 mM, MgCl2 3 mM, NaCl 100 mM, 0.5% BSA; pH 7.4). The target compound was used in concentrations ranging from 10^–11 to 10^–4 M and incubated for 2 h at 37 °C with agitation in the presence of 0.5 nM [^35S]-GTPγS and 50 μM GDP. Basal coupling of [^35S]-GTPγS to Gi/o proteins was determined by incubating the membrane aliquots with the radioligand in the absence of the target compound. To define nonspecific binding, 10 μM of unlabeled GTPγS was added to the incubation.

CB1 receptor [1] = target: T2, CB1 receptor (Mus musculus, UniProt P47746); test: Functional [35S]GTPγS autoradiography in mouse brain slices; assay type: biochemical, Swiss mice; conditions: for [35S]GTPγS binding, Stimulation (% over basal), CP55,940 + UVI3502 / [35S]GTPγS binding, Stimulation (% over basal): mouse; for [35S]GTPγS binding, Stimulation (% over basal), CP55,940 + UVI3502: CP55,940 and UVI3502 both at 10 µM; for [35S]GTPγS binding, Stimulation (% over basal): compound alone 10 µM
T2 construct: fresh frozen sections from brain samples from wild-type; from tissue; host or cells: Swiss mouse brain sections
T2 sequence (P47746 whole entry): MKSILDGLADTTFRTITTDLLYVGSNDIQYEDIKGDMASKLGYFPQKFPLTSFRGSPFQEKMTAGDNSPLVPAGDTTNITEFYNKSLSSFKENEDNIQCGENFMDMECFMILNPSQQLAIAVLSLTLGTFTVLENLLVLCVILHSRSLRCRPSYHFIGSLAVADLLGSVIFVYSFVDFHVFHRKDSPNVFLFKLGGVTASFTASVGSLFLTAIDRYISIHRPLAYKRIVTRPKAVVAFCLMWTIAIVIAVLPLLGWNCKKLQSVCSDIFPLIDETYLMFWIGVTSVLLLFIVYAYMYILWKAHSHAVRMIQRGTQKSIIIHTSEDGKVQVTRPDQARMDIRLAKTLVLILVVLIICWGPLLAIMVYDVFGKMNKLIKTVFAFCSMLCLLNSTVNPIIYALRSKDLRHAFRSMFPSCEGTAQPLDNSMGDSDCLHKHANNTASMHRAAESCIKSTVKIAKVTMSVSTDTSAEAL
Description: All brain sections were air-dried for 30 min and then immersed in Coplin jars for preincubation (4 times, 15 min each time) in an HEPES-based buffer (50 mM HEPES, 100 mM NaCl, 3 mM MgCl2, 0.2 mM EGTA, 0.5% BSA; pH 7.4) at 30 °C. The objective of this preincubation was the removal of endogenous ligands. […] Basal [^35S]-GTPγS binding was defined in the absence of the agonists in two consecutive slices. To define nonspecific binding, 10 μM of unlabeled GTPγS was added to the incubation in another section. Following incubation, slices were twice washed in an ice-cold 50 mM HEPES buffer (pH 7.4), dried, and exposed for 48 h to β-radiation sensitive film with a set of [^14C] standards calibrated for [^35S]. Calibrated films were scanned and quantified using Fiji software (Fiji, Bethesda, […], USA). The signal corresponding to nonspecific binding was previously subtracted from the basal and agonist-stimulated binding. Then, the data was expressed as the percentage of stimulation over basal following the formula: ([^35S]-GTPγS agonist-stimulated binding) × 100/([^35S]-GTPγS basal binding)-100.

CB1 receptor [2] = target: T3, CB1 receptor (Rattus norvegicus, UniProt P20272); test: [3H]CP55,940 receptor autoradiography in rat brain slices; assay type: binding, Sprague-Dawley rat; set-up: fresh frozen sections from brain samples from wild-type; from tissue; host or cells: Sprague-Dawley rat brain sections; conditions: for [3H]CP55,940 binding: rat, 3 nM [3H]CP55,940 in the presence of compound 10 µM
T3 sequence (P20272 whole entry): as the sequence (P47746 whole entry) above, with D95E counted along it
Description: All brain sections were air-dried for 30 min and later immersed in Coplin jars for preincubation in a buffer containing 50 mM Tris–HCl and 1% of BSA (pH 7.4) for 30 min at room temperature. The objective of this preincubation was to remove endogenous ligands. […] Following incubation, tissue slices were washed with an ice-cold preincubation buffer, dipped in distilled water, and dried overnight. To generate autoradiograms, dry sections were placed in hermetically closed cassettes and exposed to β-radiation-sensitive films for 21 days at 4 °C. To calibrate the optical densities to fmol/mg tissue equivalent, [^3H]-microscales were exposed to the films. To quantify the calibrated films after scanning, Fiji software (Bethesda, […], USA) was used.

CB1 receptor [3] = target: T3, CB1 receptor; test: [35S]GTPγS functional binding assay in rat cortex membrane homogenates; assay type: biochemical; set-up: functional assays in membrane homogenates from the rat cortical tissue; from tissue; host or cells: Sprague-Dawley rat brain cortex
Description: as §1

[4] = nucleus basalis magnocellularis

IC50 (cannabinoid receptors; high-affinity site of two-site fit, read-out: IC50Hi): 0.026 nM
IC50 (cannabinoid receptors; low-affinity site of two-site fit, read-out: IC50Lo): 772 ± 49.4 nM
inhibition of [3H]CP55,940 binding corresponding to the high-affinity binding site (cannabinoid receptors; rat cortex membranes): approximately 18%
inhibition of [3H]CP55,940 binding corresponding to the low-affinity binding site (cannabinoid receptors; rat cortex membranes): ~40%
total inhibition of [3H]CP55,940 binding (cannabinoid receptors; rat cortex membranes): about 58%
activity on CP55,940-evoked [35S]GTPγS stimulation (CB1 receptor [1]; mouse brain slices, 10 µM, result in words): acts as an antagonist
[35S]GTPγS binding, Stimulation (% over basal), CP55,940 + UVI3502 (CB1 receptor [1]; amygdala): 0 ± 78 % over basal
[35S]GTPγS binding, Stimulation (% over basal) (CB1 receptor [1]; amygdala): -16 ± 51 % over basal
[35S]GTPγS binding, Stimulation (% over basal), CP55,940 + UVI3502 (CB1 receptor [1]; cerebellum (gray matter)): 6 ± 23 % over basal
[35S]GTPγS binding, Stimulation (% over basal) (CB1 receptor [1]; cerebellum (gray matter)): -43 ± 9 % over basal
[35S]GTPγS binding, Stimulation (% over basal), CP55,940 + UVI3502 (CB1 receptor [1]; cortex): -51 ± 11 % over basal
[35S]GTPγS binding, Stimulation (% over basal) (CB1 receptor [1]; cortex): -55 ± 9 % over basal
[35S]GTPγS binding, Stimulation (% over basal), CP55,940 + UVI3502 (CB1 receptor [1]; globus pallidus): 91 ± 104 % over basal
[35S]GTPγS binding, Stimulation (% over basal) (CB1 receptor [1]; globus pallidus): -46 ± 29 % over basal
[35S]GTPγS binding, Stimulation (% over basal), CP55,940 + UVI3502 (CB1 receptor [1]; hippocampus dorsal): -36 ± 8 % over basal
[35S]GTPγS binding, Stimulation (% over basal) (CB1 receptor [1]; hippocampus dorsal): -38 ± 12 % over basal
[35S]GTPγS binding, Stimulation (% over basal), CP55,940 + UVI3502 (CB1 receptor [1]; [4]): -30 ± 37 % over basal
[35S]GTPγS binding, Stimulation (% over basal) (CB1 receptor [1]; [4]): -20 ± 65 % over basal
[35S]GTPγS binding, Stimulation (% over basal), CP55,940 + UVI3502 (CB1 receptor [1]; striatum): -52 ± 13 % over basal
[35S]GTPγS binding, Stimulation (% over basal) (CB1 receptor [1]; striatum): -52 ± 18 % over basal
[35S]GTPγS binding, Stimulation (% over basal), CP55,940 + UVI3502 (CB1 receptor [1]; substantia nigra): 181 ± 128 % over basal
[35S]GTPγS binding, Stimulation (% over basal) (CB1 receptor [1]; substantia nigra): -58 ± 11 % over basal
inhibition of [3H]CP55,940 binding in brain areas (CB1 receptor [2]; rat brain slices, 10 µM, result in words): partially inhibit
[3H]CP55,940 binding (CB1 receptor [2]; amygdala): 136 ± 52 fmol/mg t.e.
[3H]CP55,940 binding (CB1 receptor [2]; cerebellum (gray matter)): 421 ± 126 fmol/mg t.e.
[3H]CP55,940 binding (CB1 receptor [2]; cortex): 122 ± 25 fmol/mg t.e.
[3H]CP55,940 binding (CB1 receptor [2]; globus pallidus): 572 ± 40 fmol/mg t.e.
[3H]CP55,940 binding (CB1 receptor [2]; hippocampus dorsal): 184 ± 26 fmol/mg t.e.
[3H]CP55,940 binding (CB1 receptor [2]; [4]): 147 ± 18 fmol/mg t.e.
[3H]CP55,940 binding (CB1 receptor [2]; striatum): 291 ± 18 fmol/mg t.e.
[3H]CP55,940 binding (CB1 receptor [2]; substantia nigra): 1364 ± 581 fmol/mg t.e.
EC50 (CB1 receptor [3]; slight decrease of baseline [35S]GTPγS binding, rat brain cortex membrane homogenates): 4.06 ± 3.27 nM
Compound: CCOC(=O)/C=C1\C(=O)Nc2ccc(C)cc2-c2c1c1cc(OC)ccc1n2C(=O)OCC [UVI3502]
affinity for cannabinoid receptors (inhibition of [3H]CP55,940 binding) (cannabinoid receptors; rat cortex membranes, result in words): showed affinity for cannabinoid receptors
stimulation of [35S]GTPγS binding (coupling of CB1 to Gi/o proteins) (human CB1 receptor): does not; also recorded: did not stimulate the coupling of CB1 receptors to Gi/o proteins
stimulation of [35S]GTPγS binding (coupling of CB1 to Gi/o proteins) (CB1 receptor [3]; rat cortex membrane homogenates, result in words): does not; also recorded: did not stimulate the coupling of CB1 receptors to Gi/o proteins
